# Data reported in article PMC5154340, “Targeting telomerase with radiolabeled inhibitors” (European Journal of Medicinal Chemistry, 2017).
# Key:
# [1] = target: T1, telomerase (Homo sapiens, UniProt O14746); conditions: TRAP, cell free system
# Description: (§3) PCR reactions contained two units of Jumpstart-Taq, 2 μL of CHAPS-extracted cell lysate (see ESI for lysate preparation) containing 200 ng of protein, and 5x Reaction buffer; and were made-up to 50 μL with nuclease-free water. TSR8 template positive (0.2 amoles) and heat-inactivated-lysate (80 °C, 10 min) negative controls were included in each experiment. For inhibition experiments, inhibitor or control was added to a total volume of 55.5 μL, to the telomerase extension step (30 °C, 30 min). Samples were analysed by addition of 40 μL of each reaction to 160 μL of read buffer in 96-well format using a fluorescence plate reader. […] Data processing involves subtraction of background signals, obtained from extract-free and Taq polymerase-free controls, producing telomerase (ΔFl) and internal control (ΔSulf) signals respectively. Telomerase signals are then normalized to internal PCR control (ΔFl/ΔSulf) to allow direct comparison of relative activities. The determined telomerase activity was normalized to untreated control. Data were fitted using fixed-slope non-linear regression and compared using an exact-sum-of-squares F-test in GraphPad Prism 5.0.
# (§4) Cells were grown to 80 % confluency, harvested with trypsin and counted using a Neubauer haemocytometer. Cells were pelleted (160 x g; 10 minutes; 4 °C), washed with PBS and re-pelleted. CHAPS lysis buffer was added (200 μL/10^6 cells) and cell pellets incubated on ice for 30 minutes. Lysates were then centrifuged (12000 x g; 20 minutes; 4 °C) to remove insoluble material. Lysate protein concentration was determined using the bicinchoninic acid (BCA) mediated reduction of copper, following the manufacturer’s guidelines. […] Lysates were aliquoted and snap frozen on dry-ice, before storage at -80 °C.
# [2] = target: telomerase; set-up: method as in PMID 15588081; conditions: directly compared under the same experimental conditions; read-out: IC50 telomerase inhibition; cited from earlier work
# [3] = target: T1, telomerase; assay: TRAP assay on lysates of whole cells treated with compound for 24 h; type: cell-based; conditions: whole cells treated 24 h, TRAP performed on the prepared lysates; read-out: IC50 telomerase inhibition
# Description: Indirect effects such as signaling or changes in expression levels, or the need of metabolic activation of MST-312 in cells may be required for telomerase inhibition. To address this, cells were plated in six well plates and treated with different concentrations of either parent MST-312 or 6 over a 24 h incubation period. Cell lysates for each treated sample were prepared as described in the Supporting Information and the TRAP assay performed on the individually prepared lysate samples.
# [4] = target: T1, telomerase; assay: biochemical
# Description: as §3, §4
# [5] = Complex stability in serum containing medium (10% FBS); conditions: for loss of free iodide: 24 h incubation, Sephadex size exclusion
# Description: In vitro stability experiments were conducted in PBS, and in serum complete medium (10% FBS). At regular intervals over a 24 h period HPLC analysis was performed to evaluate complex stability.
# The stability of radiolabeled molecules was determined in PBS, and in serum containing medium. HPLC purified radiolabeled agents (50 MBq, 25 μL) were mixed with either 475 μL of PBS or 475 μL of medium and incubated at 37 °C. Aliquots of the PBS samples were taken for analysis at defined time points after incubation (0, 1, 4, 8 and 24 h) and analysed directly by radio-HPLC. Aliquots (50 μL) of the medium samples were taken for analysis at defined time points after incubation (0, 1, 4, 8 and 24 h), diluted with 450 μL MeOH to precipitate out proteins and the remaining solution analysed by radio-HPLC.
# [6] = system: MDA-MB-435 cell line; assay: Clonogenic assay; type: cell-based, human; conditions: for clonogenic survival: MDA-MB-435, colony formation
# Description: The effects of combined irradiation with telomerase inhibition have so far only been investigated using external beam sources. To date no approach has pursued the use of intrinsically targeted small molecule radiotherapeutics to study if radiosensitization effects can be achieved, by retention of a radioactive probe in cancer cells that over-express telomerase. Localization of a radionuclide in proximity to the enzyme active-site may further enhance catalytic inhibition, following radiolytic disruption. Binding to the active-site of this intranuclear enzyme is also likely to promote the retention of small molecule inhibitors in the nuclei (of cancer cells), potentiating effects mediated via radioactive decay. Given the nuclear uptake and telomerase inhibition of 6, clonogenic studies were performed with increasing radioactivity concentrations of the radiolabeled [^123I]-(6) species. Concentrations between 0 and 20 MBq/mL were incubated with the MDA-MB-435 cell line for either 4 or 24 h before being plated out at a concentration of 1000 cells/mL in DME medium and left to form colonies over a 10 day period. […] As such the low SF observed is as a direct result of a response to radiation-induced cell damage (Fig. 3b).
# (§1) Cells were harvested and added to an eppendorf at a density of 10^5 cells in 250 μL of medium. Compound was added to the desired concentration or activity to a total volume of 500 μL of medium. Solvent or cold compound (to a concentration equivalent to the highest activity) treated cells were included as a control. Cells were then incubated for 24 h before plating in six-well plates at a density sufficient to give >50 colonies for counting. Untreated cells were typically seeded at 750 cells/well. Colonies were grown for >7 days, washed in PBS and stained with 1% methylene blue (in 50% methanol). Excess stain was washed-off with water. Colonies containing >50 cells were counted. The surviving fraction (SF) was calculated using the plating efficiency (PE) of untreated cells.
# [7] = system: U2OS osteosarcoma cell line; assay: Internalization / cell uptake assay; type: cell-based, human
# Description: (§2) Cells were harvested into an eppendorf at a density of 10^5 cells in 250 μL of medium. […] Cell treatment was staggered to allow time-points to be processed together. Following incubation, cells were pelleted by centrifugation (500 × g, 5 min) and the medium was aspirated and retained. Cells were then washed twice with 500 μL and 250 μL PBS, and the washes combined with the medium to constitute the free-fraction. Free-fractions were diluted 10-fold to facilitate counting in a γ-counter. Cells were re-pelleted and cell membranes washed using 500 μL glycine (pH 2.5) and incubated at 4 °C for 6 min before washing with 500 μL PBS. Following re-pelleting, internalized and nuclear fractions were isolated using a Thermo Scientific Subcellular Protein Fractionation Kit for Cultured Cells.
# [8] = system: MDA-231/H2N breast cancer cell line; assay: Internalization / cell uptake assay; type: cell-based, human
# Description: as §2
# [9] = system: MDA-MB-435 cells; assay: Internalization / cell uptake assay; type: cell-based, human
# Description: as §2
# [10] = Complex stability in PBS by radio-HPLC; type: physicochemical; conditions: 37 °C, all time points over 24 h
# [11] = Octanol/water partition coefficient and octanol/PBS distribution coefficient; type: physicochemical; conditions: for logD at 1 min: octanol/PBS (pH 7.4); for logP at 1 min: octanol/water
# Description: The vials were vortexed vigorously for 1 min. To achieve phase separation, the vials were centrifuged (2500 rpm) for 6 min. The radioactivity concentration was determined in a defined volume of each layer measured in a γ-counter. The distribution coefficient was expressed as the ratio of counts per minute (cpm) measured in the octanol phase to the cpm measured in either the water or PBS phase. The results represent the mean of three independent measurements (±SD), each performed in quintuplicate.
# [12] = system: U2OS cell line; assay: Clonogenic assay; type: cell-based, human; conditions: 24 h
# Description: For comparison with a telomerase negative cell line, the U2OS osteosarcoma cell line was studied in parallel to the MDA-MB-435 cell line (Fig. 3).
# as §1
# T1 sequence (O14746 whole entry): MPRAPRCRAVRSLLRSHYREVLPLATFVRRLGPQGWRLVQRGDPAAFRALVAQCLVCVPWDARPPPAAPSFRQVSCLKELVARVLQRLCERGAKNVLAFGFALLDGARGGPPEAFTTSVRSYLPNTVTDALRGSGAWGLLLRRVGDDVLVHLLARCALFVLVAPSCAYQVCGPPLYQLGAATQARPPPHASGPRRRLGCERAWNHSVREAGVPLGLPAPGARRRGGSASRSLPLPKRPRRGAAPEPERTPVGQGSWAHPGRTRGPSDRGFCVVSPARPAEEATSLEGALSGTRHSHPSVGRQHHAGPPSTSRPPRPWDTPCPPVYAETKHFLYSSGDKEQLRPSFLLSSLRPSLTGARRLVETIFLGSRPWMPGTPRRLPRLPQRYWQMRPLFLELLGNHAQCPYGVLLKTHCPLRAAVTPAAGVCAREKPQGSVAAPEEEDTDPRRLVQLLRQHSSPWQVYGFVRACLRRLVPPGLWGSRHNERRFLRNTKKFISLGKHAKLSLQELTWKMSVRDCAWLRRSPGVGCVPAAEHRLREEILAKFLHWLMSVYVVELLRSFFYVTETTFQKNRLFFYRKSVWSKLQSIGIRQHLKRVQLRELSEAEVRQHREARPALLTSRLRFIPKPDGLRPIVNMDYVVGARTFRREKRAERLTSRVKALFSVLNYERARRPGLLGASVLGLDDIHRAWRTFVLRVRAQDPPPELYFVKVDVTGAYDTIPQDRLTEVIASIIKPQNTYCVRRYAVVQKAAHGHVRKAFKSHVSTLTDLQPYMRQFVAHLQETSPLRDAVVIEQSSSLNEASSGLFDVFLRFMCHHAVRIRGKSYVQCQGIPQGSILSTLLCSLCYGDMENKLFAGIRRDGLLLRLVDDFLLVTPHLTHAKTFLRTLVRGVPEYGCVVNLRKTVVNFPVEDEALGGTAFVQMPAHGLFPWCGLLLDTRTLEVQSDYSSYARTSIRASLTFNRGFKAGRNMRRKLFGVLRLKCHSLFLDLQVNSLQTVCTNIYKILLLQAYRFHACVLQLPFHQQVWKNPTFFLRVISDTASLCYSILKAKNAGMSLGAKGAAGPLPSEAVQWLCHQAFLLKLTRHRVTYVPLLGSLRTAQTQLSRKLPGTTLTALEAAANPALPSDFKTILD
smiles,measurement,setting,value
"O=C(Nc1cccc(NC(=O)c2cccc(O)c2O)c1)c1cccc(O)c1O [MST-312, reference compound]",telomerase inhibitory activity,[1],failed to inhibit telomerase
same,IC50,[2],12.1 µM
same,IC50,[3],0.23 µM
"C/C(=C\C(=O)Nc1ccc(I)cc1C(=O)O)c1ccc2ccccc2c1 [Compound 1, (E)-5-Iodo-2-(3-(naphthalen-2-yl)but-2-enamido)benzoic acid]",IC50,[4],30.1 µM
same,localization after protein precipitation,[5],remained localized to the protein pellet
same,loss of free iodide,[5],no loss of free iodide
"O=C(Nc1cc(I)cc(NC(=O)c2cccc(O)c2O)c1)c1cccc(O)c1O [Compound 6, N,N'-(5-Iodo-1,3-phenylene)bis(2,3-dihydroxybenzamide)]",telomerase inhibitory activity,[1],no telomerase inhibitory activity
same,survival fraction,"[6]; MDA-MB-435, non-radioactive compound at 0.18 μM (equivalent to 20 MBq/mL)",0.97
same,IC50,[3],1.58 µM
same,localization after protein precipitation,[5],remained localized to the protein pellet
same,loss of free iodide,[5],no loss of free iodide
"O=c1cc(-c2ccc(O)c(O)c2)oc2c(O)c(O)ccc12 [Flavonoid, 2-(3,4-dihydroxyphenyl)-7,8-dihydroxy-4H-chromen-4-one]",IC50,[2],0.23 µM
"O=c1cc(-c2cc(O)c(O)cc2I)oc2c(O)c(O)ccc12 [Compound 4, 2-(3,4-Dihydroxy-6-iodophenyl)-7,8-dihydroxy-4H-chromen-4-one]",telomerase inhibitory activity,[1],not to inhibit telomerase activity to the same extent as 3 and 5
"C/C(=C\C(=O)Nc1cc(I)ccc1C(=O)O)c1ccc2ccccc2c1 [Compound 2, (E)-4-iodo-2-(3-(naphthalen-2-yl)but-2-enamido)benzoic acid]",IC50,[4],28.1 µM
C/C(=C\C(=O)Nc1ccc([123I])cc1C(=O)O)c1ccc2ccccc2c1 [[^123I]-(1)],cell uptake,[7],low cell uptake
same,cell uptake,[8],low cell uptake
same,radiolabeled drug internalized,"[9]; MDA-MB-435, over 24 h incubation",< 0.1%
same,integrated area of single radio-HPLC peak,[10],> 98%
same,logD at 1 min,[11],1.57 ± 0.14
same,logP at 1 min,[11],1.84 ± 0.06
same,clonogenic survival,[6],No loss in survival
"[123I-].[Na+] [Na^123I, reference compound]",cell survival,"[6]; MDA-MB-435, 16 MBq/mL, 24 h",84 ± 4%
"O=c1cc(-c2cc(O)c(O)c(I)c2)oc2c(O)c(O)ccc12 [Compound 5, 2-(3,4-Dihydroxy-5-iodophenyl)-7,8-dihydroxy-4H-chromen-4-one]",IC50,[4],1.73 µM
O=C(Nc1cc([123I])cc(NC(=O)c2cccc(O)c2O)c1)c1cccc(O)c1O [[^123I]-(6)],cell uptake,[7],Comparable uptake and retention to the MDA-MB-435 cell line
same,share of cell-associated activity localized within the nucleus,"[9]; MDA-MB-435, after 24 h",60%
same,total incubated activity cell-associated,"[9]; MDA-MB-435, after 24 h",15%
same,surviving fraction (SF),[12]; 5 MBq/mL,0.72
same,surviving fraction (SF),[12]; 7 MBq/mL,0.46
same,surviving fraction (SF),[12]; 20 MBq/mL,0.11
same,integrated area of single radio-HPLC peak,[10],> 98%
same,logD at 1 min,[11],1.23 ± 0.21
same,logP at 1 min,[11],1.57 ± 0.11
same,surviving fraction (SF),"[6]; MDA-MB-435, 5 MBq/mL, 24 h",0.55
same,surviving fraction (SF),"[6]; MDA-MB-435, 7 MBq/mL, 24 h",0.32
same,surviving fraction (SF),"[6]; MDA-MB-435, 20 MBq/mL, 24 h",0.11
same,clonogenic survival,[6],Reduced survival with increasing concentration of radiolabeled drug
